Numbers after ± are expanded uncertainties.
Details: Liquid, Ebulliometric method (Recirculating still)

Compound	vapor or sublimation pressure (283.15 K) [kPa]	vapor or sublimation pressure (293.15 K) [kPa]	vapor or sublimation pressure (303.15 K) [kPa]	vapor or sublimation pressure (313.15 K) [kPa]	vapor or sublimation pressure (323.15 K) [kPa]
CI [iodomethane]	30 ± 10	47.5 ± 10	69.9 ± 10	95 ± 10	129 ± 10
COC [dimethyl ether]	372 ± 10	501 ± 10	687 ± 10	898 ± 10	1116.2 ± 10

Reference: the NIST ThermoML archive (doi:10.1016/j.fluid.2014.06.029)
